The compounds below were run against TNF-α (Homo sapiens, UniProt P01375) (assay: TNF-α Induced HEK Blue Cellular Assay). Settings: HEK Blue TNFα reporter cells, TNF-α 100 pg/ml, 24 hrs at 37° C., secreted alkaline phosphatase (QUANTI-Blue, 620 nm).
Format: cell-based
Method in brief: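 HEK Blue TNFα reporter cells (10,000/well, DMEM + 10% FBS) treated with compound ([…] to 0.5 nM final) and stimulated with 100 pg/ml TNF-α for 24 h at 37 °C. Secreted alkaline phosphatase read with QUANTI-Blue at 620 nm; IC50 by 4-parameter logistic fit after background correction to stimulated/unstimulated DMSO controls.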

TNF-α, sequence (P01375 77-233 limits assumed): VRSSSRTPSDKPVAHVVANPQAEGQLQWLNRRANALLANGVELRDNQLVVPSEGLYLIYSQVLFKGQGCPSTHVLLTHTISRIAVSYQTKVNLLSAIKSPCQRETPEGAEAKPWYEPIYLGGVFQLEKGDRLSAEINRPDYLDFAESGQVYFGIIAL

Compound | IC50 [nM]
Cc1nc2cc(F)c(-c3cnc(P(C)(C)=O)c(F)c3)nc2c(N[C@H](C)c2cc(F)cc(F)c2)c1Cl [Example 128, 3-chloro-N-[(1R)-1-(3,5-difluorophenyl)ethyl]-6-[6-(dimethylphosphoryl)-5-fluoropyridin-3-yl]-7-fluoro-2-methyl-1,5-naphthyridin-4-amine] | 10000 to 30000
Cc1nc2cc(F)c(-c3cnc(P(C)(C)=O)c(F)c3)cc2c(N[C@H](C)c2cc(F)cc(F)c2)c1Cl [Example 129, 3-chloro-N-[(1R)-1-(3,5-difluorophenyl)ethyl]-6-[6-(dimethylphosphoryl)-5-fluoropyridin-3-yl]-7-fluoro-2-methylquinolin-4-amine] | 10000 to 30000
Cc1nc2cc(F)c(-c3ccc(P(C)(C)=O)nc3)nc2c(N[C@H](C)c2cc(F)cc(Cl)c2)c1Cl [Example 130, 3-chloro-N-[(1R)-1-(3-chloro-5-fluorophenyl)ethyl]-6-[6-(dimethylphosphoryl)pyridin-3-yl]-7-fluoro-2-methyl-1,5-naphthyridin-4-amine] | ≤ 1000
Cc1nc2cc(F)c(-c3cnc(P(C)(C)=O)nc3)nc2c(N[C@H](C)c2cc(C#N)cc(F)c2F)c1Cl [Example 131, 3-[(1R)-1-({3-chloro-6-[2-(dimethylphosphoryl)pyrimidin-5-yl]-7-fluoro-2-methyl-1,5-naphthyridin-4-yl}amino)ethyl]-4,5-difluorobenzonitrile] | ≤ 1000
CC[C@H](Nc1c(Cl)c(C)nc2cc(F)c(-c3cnc(P(C)(C)=O)nc3)nc12)c1ncccc1F [Example 132, 3-chloro-6-[2-(dimethylphosphoryl)pyrimidin-5-yl]-7-fluoro-N-[(1S)-1-(3-fluoropyridin-2-yl)propyl]-2-methyl-1,5-naphthyridin-4-amine] | ≤ 1000
Cc1nc2cc(F)c(-c3ccc(P(C)(C)=O)nc3)nc2c(N[C@H](C)c2cccc(F)c2F)c1C [Example 133, N-[(1R)-1-(2,3-difluorophenyl)ethyl]-6-[6-(dimethylphosphoryl)pyridin-3-yl]-7-fluoro-2,3-dimethyl-1,5-naphthyridin-4-amine] | ≤ 100
Cc1nc2cc(F)c(-c3ccc(P(C)(C)=O)nc3)nc2c(N[C@H](C)c2cccc(F)c2F)c1C1CC1 [Example 134, 3-cyclopropyl-N-[(1R)-1-(2,3-difluorophenyl)ethyl]-6-[6-(dimethylphosphoryl)pyridin-3-yl]-7-fluoro-2-methyl-1,5-naphthyridin-4-amine] | 1000 to 10000
Cc1nc2cc(F)c(-c3cnc(P(C)(C)=O)c(F)c3)cc2c(N[C@H](C)c2cccc(F)c2F)c1Cl [Example 135, 3-chloro-N-[(1R)-1-(2,3-difluorophenyl)ethyl]-6-[6-(dimethylphosphoryl)-5-fluoropyridin-3-yl]-7-fluoro-2-methylquinolin-4-amine] | ≤ 100
Cc1nc2cc(F)c(-c3ccc(P(C)(C)=O)nc3)nc2c(NC(c2ncccc2F)C2CC2)c1Cl (centres unmarked) [Example 136, 3-chloro-N-[cyclopropyl(3-fluoropyridin-2-yl)methyl]-6-[6-(dimethylphosphoryl)pyridin-3-yl]-7-fluoro-2-methyl-1,5-naphthyridin-4-amine] | ≤ 1000
Cc1nc2cc(F)c(-c3ccc(P(C)(C)=O)nc3)nc2c(N[C@@H](c2ccccc2)C2CC2)c1Cl [Example 137, 3-chloro-N—[(R)-cyclopropyl(phenyl)methyl]-6-[6-(dimethylphosphoryl)pyridin-3-yl]-7-fluoro-2-methyl-1,5-naphthyridin-4-amine] | ≤ 1000
Cc1nc2cc(F)c(-c3ccc(P(C)(C)=O)nc3)nc2c(N[C@@H](c2cc(F)cc(F)c2)C2CC2)c1Cl [Example 138, 3-chloro-N—[(R)-cyclopropyl(3,5-difluorophenyl)methyl]-6-[6-(dimethylphosphoryl)pyridin-3-yl]-7-fluoro-2-methyl-1,5-naphthyridin-4-amine] | ≤ 1000

— patent US12338262B2 (Forward Therapeutics, Inc., priority 2022, dated 2025)
